Measurements published in PubChem BioAssay (NCI).
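Following 48 hours of exposure in 96-well plates, responses at five concentrations were used to interpolate endpoints linearly. Definition used: TGI = concentration required for complete inhibition of growth.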

Key:
Test in all cases: growth of human tumour cells (NCI), 48 h
A498 renal = system: A498 renal
HL-60(TB) leukemia = system: HL-60(TB) leukemia
HOP-62 NSCLC = system: HOP-62 NSCLC
HOP-92 NSCLC = system: HOP-92 NSCLC
HS 578T breast = system: HS 578T breast
KM12 colon = system: KM12 colon
LOX IMVI melanoma = system: LOX IMVI melanoma
M14 melanoma = system: M14 melanoma
MDA-MB-231 breast = system: MDA-MB-231 breast
MOLT-4 leukemia = system: MOLT-4 leukemia
NCI/ADR-RES ovarian = system: NCI/ADR-RES ovarian
OVCAR-3 ovarian = system: OVCAR-3 ovarian
OVCAR-8 ovarian = system: OVCAR-8 ovarian
PC-3 prostate = system: PC-3 prostate
RPMI-8226 leukemia = system: RPMI-8226 leukemia
SK-MEL-28 melanoma = system: SK-MEL-28 melanoma
SNB-19 CNS = system: SNB-19 CNS
SNB-75 CNS = system: SNB-75 CNS
T-47D breast = system: T-47D breast

Row | Structure (SMILES) | TGI (A498 renal) [µM] | TGI (HL-60(TB) leukemia) [µM] | TGI (HOP-62 NSCLC) [µM] | TGI (HOP-92 NSCLC) [µM] | TGI (HS 578T breast) [µM] | TGI (KM12 colon) [µM] | TGI (LOX IMVI melanoma) [µM] | TGI (M14 melanoma) [µM] | TGI (MDA-MB-231 breast) [µM] | TGI (MOLT-4 leukemia) [µM] | TGI (NCI/ADR-RES ovarian) [µM] | TGI (OVCAR-3 ovarian) [µM] | TGI (OVCAR-8 ovarian) [µM] | TGI (PC-3 prostate) [µM] | TGI (RPMI-8226 leukemia) [µM] | TGI (SK-MEL-28 melanoma) [µM] | TGI (SNB-19 CNS) [µM] | TGI (SNB-75 CNS) [µM] | TGI (T-47D breast) [µM]
1 | CC1(C)CCCCCCC2OC2CCCCCC(C)(C)C1=O (stereo not given) | > 100 | 57 | > 100 | > 81 | > 100 | 97 | > 100 | > 100 | > 100 | 61.2 | > 88.2 | > 100 | > 100 | > 94.6 | > 95 | > 100 | > 100 | > 100 | > 100
2 | CCOC(=O)C(NC(=O)CC(C)C)(Nc1ccc(S(=O)(=O)Nc2nc(C)cc(C)n2)cc1)C(F)(F)F (stereo not given) | > 100 | > 100 | > 100 | > 100 | > 100 | > 100 | > 100 | > 100 | > 100 | > 100 | > 100 | > 100 | > 100 | > 100 | > 100 | > 100 | > 100 | > 100 | > 100
3 | O=c1c2cc([N+](=O)[O-])ccc2n2n1Cc1ccccc1C2 | > 100 | > 100 | > 100 | > 100 | > 100 | > 100 | > 100 | – | > 100 | > 100 | > 100 | > 100 | > 100 | > 100 | > 100 | > 100 | > 100 | > 100 | > 100
4 | C[C@H]1C[C@H](C)c2ccccc2N(C)C1=Nc1ccccc1 | 84.4 | 48.3 | > 100 | 40.1 | > 100 | > 100 | 31.7 | 56.2 | 41.4 | 72.7 | > 100 | 80 | > 100 | > 100 | > 100 | > 100 | > 100 | > 100 | > 100
5 | CCCCC(=O)NC1(c2cc3ccccc3s2)CCCCC1 | > 100 | 76.5 | > 100 | > 100 | > 100 | > 100 | > 100 | > 100 | > 100 | – | > 100 | > 100 | > 100 | > 100 | > 100 | > 100 | > 100 | > 100 | > 100
6 | O=C(O)c1ccc(Nc2nc3ccccc3nc2-c2cccs2)cc1 | > 100 | > 100 | > 100 | > 100 | > 100 | > 100 | > 100 | – | > 100 | > 100 | > 100 | > 100 | > 100 | > 100 | > 100 | > 100 | – | > 100 | > 100
7 | COC(=O)C(=O)C(C(=O)C(=O)Nc1ccccc1C(C)=O)c1nc2ccc(C(=O)c3ccccc3)cc2[nH]c1=O (stereo not given) | > 100 | > 100 | > 100 | > 100 | > 100 | > 100 | > 100 | > 100 | > 100 | > 100 | > 100 | > 100 | > 100 | > 100 | > 100 | – | > 100 | > 100 | > 100
8 | CCOC(=O)C1C(c2ccc(OC)cc2)c2c([nH][nH]c2=O)CC1(O)OCC (stereo not given) | > 100 | > 100 | > 100 | > 100 | > 100 | > 100 | > 100 | > 100 | > 100 | > 100 | > 100 | > 100 | > 100 | > 100 | > 100 | > 100 | > 100 | > 100 | > 100
9 | CCOC(=O)/C(C#N)=C1\c2c([nH]c(=S)[nH]c2=O)Oc2ccc3ccccc3c21 | > 100 | 4.56 | > 100 | > 100 | > 100 | > 100 | > 100 | > 100 | > 100 | 47.3 | > 100 | 58.8 | > 100 | > 100 | > 100 | 3.81 | 58.5 | 52 | > 100
10 | COc1ccc(-c2c(CN3CCOCC3)sc3nc4ccccc4n23)cc1 | 72.4 | > 73.2 | > 100 | > 100 | > 69.7 | > 100 | > 100 | > 100 | > 68.9 | > 100 | > 42.8 | > 80.9 | > 100 | > 67.4 | 23.4 | 98.6 | > 57.1 | > 100 | > 100
11 | CCCCCC(CO)C(O)(C(F)(F)F)C(F)(F)F (stereo not given) | > 10 | > 10 | > 10 | > 10 | > 10 | > 10 | > 10 | > 10 | > 10 | > 10 | > 10 | > 10 | > 10 | > 10 | > 10 | > 10 | > 10 | > 10 | > 10
12 | COc1ccc(C(c2c[nH]c3ccc(Br)cc23)c2c[nH]c3ccc(Br)cc23)cc1 | 2.29 | 0.346 | 1.22 | 2.07 | 3.81 | 0.468 | 0.314 | 0.7 | 0.705 | 0.478 | 4.34 | 0.52 | – | 0.843 | 0.543 | 0.743 | 1.76 | 1.54 | 2.67
13 | CC1=C(C(=O)NCCc2ccccc2)CC(C(=O)NCCc2ccccc2)=C(C)N1 | > 100 | > 100 | > 100 | > 100 | > 100 | > 100 | > 100 | > 100 | > 100 | > 100 | > 100 | > 100 | > 100 | > 100 | > 100 | – | 72.5 | 69.2 | > 100
